# Laboratory results published in patent US8067638B2, “Amide derivative and insecticide containing the same” (Mitsui Chemicals, Inc., priority 2005, dated 2011).
# Key:
# [1] = tested on: Common Cutworm (Spodoptera litura); experiment: Insecticidal test on common cutworm (Spodoptera litura); format: in vivo; conditions: 144 h, cabbage leaf immersed, second-instar larvae, counted 6 days after release, 25° C.
# Procedure: Insecticidal Test on Common Cutworm (Spodoptera litura)
# (§1) A piece of cabbage leaf was immersed for 30 seconds in a liquid chemical prepared by diluting a test compound to a prescribed concentration. After air-drying, the piece was put into a 7-cm polyethylene cup and second-instar larvae of common cutworms were released thereinto. The polyethylene cups were set in an isothermal chamber thermostated at 25° C. From the release 6 days later, the dead and alive were counted. The test was carried out with two replications of 5 insects per a plot.
# [2] = tested on: Diamondback Moth (Plutella xylostella); experiment: Insecticidal test on diamondback moth (Plutella xylostella); format: in vivo; conditions: 144 h, cabbage leaf immersed, second-instar larvae, counted 6 days after release, 25° C.
# Procedure: Insecticidal Test on Diamondback Moth (Plutella xylostella)
# as §1, with “diamondback moths” for “common cutworms”
SMILES,mortality at 100 ppm [1],mortality at 100 ppm [2]
"Cc1cc(OS(=O)(=O)C(F)(F)F)cc(Br)c1NC(=O)c1cccc(NC(=O)c2ccccc2)c1 [Compound No. 1-369, N-(2-bromo-6-methyl-4-trifluoromethanesulfonyloxyphenyl) 3-(benzoylamino)benzamide]",≥ 70%,≥ 70%
"O=C(Nc1cccc(C(=O)Nc2ccc(OC(C(F)(F)F)C(F)(F)F)nc2Br)c1)c1ccccc1 [Compound No. 1-387, N-[2-bromo-6-(2,2,2-trifluoro-1-trifluoromethylethoxy)-pyridin-3-yl]3-(benzoylamino)benzamide]",≥ 70%,≥ 70%
"O=C(Nc1cccc(C(=O)Nc2ccc3ncsc3c2)c1)c1ccccc1 [Compound No. 1-492, N-benzothiazol-6-yl 3-(benzoylamino)benzamide]",≥ 70%,–
"O=C(Nc1c(Br)cc(OC(F)(F)C(F)C(F)(F)F)cc1Br)c1cccc(NC(=O)c2ccccc2F)c1 (stereo not drawn) [Compound No. 2-8, N-(2,6-dibromo-4-(1,1,2,3,3,3-hexafluoropropoxy)phenyl) 3-[(2-fluorobenzoyl)amino]benzamide]",≥ 70%,≥ 70%
"Cc1cc(C(F)(C(F)(F)F)C(F)(F)F)cc(C)c1NC(=O)c1cccc(Nc2ccc([N+](=O)[O-])cc2)c1 [Compound No. 5-9, N-[2,6-dimethyl-4-(heptafluoroisopropyl)phenyl]-3-(4-nitrophenylamino)-benzamide]",≥ 70%,≥ 70%
